Test results as given in ChEMBL document CHEMBL5053538, “Precursor-Directed Biosynthesis of Talaroenamine Derivatives Using a Yellow River Wetland-Derived Penicillium malacosphaerulum” (2021).
Converted amounts (≈) assume the structure as drawn.

Legend:
Assay type in all cases: functional
Acinetobacter baumannii = test: Antimicrobial activity against Acinetobacter baumannii assessed as inhibition of bacterial growth incubated for 24 hrs by agar dilution method
Escherichia coli = test: Antimicrobial activity against Escherichia coli assessed as inhibition of bacterial growth incubated for 24 hrs by agar dilution method
Bacillus subtilis = test: Antimicrobial activity against Bacillus subtilis assessed as inhibition of bacterial growth incubated for 24 hrs by agar dilution method
Mycolicibacterium phlei = test: Antimicrobial activity against Mycobacterium phlei assessed as inhibition of bacterial growth incubated for 24 hrs by agar dilution method
Edwardsiella tarda = test: Antimicrobial activity against Edwardsiella tarda assessed as inhibition of bacterial growth incubated for 24 hrs by agar dilution method
Pseudomonas = test: Antimicrobial activity against Pseudomonas assessed as inhibition of bacterial growth incubated for 24 hrs by agar dilution method
Bacillus cereus = test: Antimicrobial activity against Bacillus cereus assessed as inhibition of bacterial growth incubated for 24 hrs by agar dilution method
Proteus sp. = test: Antimicrobial activity against Proteus sp. assessed as inhibition of bacterial growth incubated for 24 hrs by agar dilution method; conditions: Proteus sp. (in: enterobacteria)

| MIC (Acinetobacter baumannii) [µg/mL] | MIC (Escherichia coli) [µg/mL] | MIC (Bacillus subtilis) [µg/mL] | MIC (Mycolicibacterium phlei) [µg/mL] | MIC (Edwardsiella tarda) [µg/mL] | MIC (Pseudomonas) [µg/mL] | MIC (Bacillus cereus) [µg/mL] | MIC (Proteus sp.) [µg/mL] | SMILES |
| --- | --- | --- | --- | --- | --- | --- | --- | --- |
| > 10 | > 10 | > 10 | > 10 | > 10 | > 10 | > 10 | > 10 | CC1=CC(=O)[C@@](C)(O)C(=O)/C1=C\Nc1ccc(F)c([N+](=O)[O-])c1 |
| > 10 | 8.83 (≈ 24.9 µM) | > 10 | > 10 | > 10 | > 10 | > 10 | > 10 | CC1=CC(=O)[C@@](C)(O)C(=O)/C1=C\Nc1ccc(Br)cc1F |
| > 10 | 4.26 (≈ 12.5 µM) | 2.13 (≈ 6.24 µM) | > 10 | > 10 | > 10 | 2.13 (≈ 6.24 µM) | 2.13 (≈ 6.24 µM) | CC1=CC(=O)[C@@](C)(O)C(=O)/C1=C\Nc1cccc(OC(F)(F)F)c1 |
| > 10 | > 10 | > 10 | > 10 | > 10 | > 10 | > 10 | > 10 | CC1=CC(=O)[C@@](C)(O)C(=O)/C1=C\Nc1ccccc1 |
| > 10 | > 10 | > 10 | > 10 | > 10 | 7.76 (≈ 24.9 µM) | > 10 | > 10 | CC1=CC(=O)[C@@](C)(O)C(=O)/C1=C\Nc1cc(F)c(F)c(F)c1 |
| > 10 | > 10 | > 10 | > 10 | > 10 | > 10 | > 10 | > 10 | CC1=CC(=O)[C@@](C)(O)C(=O)/C1=C\Nc1ccc(Br)cc1 |
| > 10 | 6.78 (≈ 25 µM) | 6.78 (≈ 25 µM) | > 10 | > 10 | > 10 | 0.85 (≈ 3.13 µM) | 6.78 (≈ 25 µM) | CC1=CC(=O)[C@@](C)(O)C(=O)/C1=C\Nc1ccc(C)cc1 |
| 2.07 (≈ 6.25 µM) | – | 0.06 (≈ 0.181 µM) | 0.26 (≈ 0.785 µM) | 0.02 (≈ 0.0604 µM) | 1.04 (≈ 3.14 µM) | 0.26 (≈ 0.785 µM) | 0.06 (≈ 0.181 µM) | O=C(O)c1cn(C2CC2)c2cc(N3CCNCC3)c(F)cc2c1=O [CIPROFLOXACIN] |
